Source: ChEMBL document CHEMBL1201862, “PubChem BioAssay data set” (2004)
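Results reflect a 48-hour exposure of cells in 96-well plates to compound at five concentrations. GI50 = concentration required for 50% inhibition of growth.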 Calls of active or inactive are those of the source. Rule as the data show it: active = GI50 up to about 1.1 µM and inactive = higher.

Assays:
Assay in all cases: NCI-60 cell line screen, 48 h
[1] = system: NCI-H226
[2] = system: CAKI-1
[3] = system: SK-MEL-5
[4] = system: MOLT-4
[5] = system: Hs-578T
[6] = system: SR
[7] = system: UACC-62
[8] = system: SK-OV-3
[9] = system: SW-620
[10] = system: A498
[11] = system: M14
[12] = system: UACC-257
[13] = system: SF-268
[14] = system: A549
[15] = system: HT-29
[16] = system: SK-MEL-2
[17] = system: HCT-15
[18] = system: NCI-H23
[19] = system: U-251
[20] = system: MDA-MB-231
[21] = system: NCI-H460
[22] = system: NCI/ADR-RES
[23] = system: EKVX
[24] = system: LOX IMVI
[25] = system: MDA-MB-435
[26] = system: NCI-H522
[27] = system: KM12
[28] = system: SNB-75
[29] = system: HOP-92
[30] = system: MCF7
[31] = system: COLO 205
[32] = system: SF-539
[33] = system: HL-60
[34] = system: SN12C
[35] = system: OVCAR-4
[36] = system: SK-MEL-28
[37] = system: PC-3
[38] = system: T47D
[39] = system: OVCAR-5
[40] = system: HOP-62
[41] = system: SF-295
[42] = system: UO-31
[43] = system: CCRF-CEM
[44] = system: BT-549
[45] = system: SNB-19
[46] = system: OVCAR-3
[47] = system: IGROV-1
[48] = system: 786-0
[49] = system: OVCAR-8
[50] = system: K562
[51] = system: HCC 2998
[52] = system: DU-145
[53] = system: RPMI-8226
[54] = system: TK-10
[55] = system: ACHN
[56] = system: HCT-116
[57] = system: RXF 393
[58] = system: Malme-3M

**Q.** With CCN(CC)CCN(C)c1ccc(CO)c2c1c(=O)c1ccccc1[s+]2[O-] (stereo unspecified) as the compound, how does the GI50 [1] read?
**A.** 17.7 µM (inactive)

**Q.** What about the GI50 [2] of the same compound?
**A.** 13.2 µM (inactive)

**Q.** And the GI50 [3]?
**A.** 2.45 µM (inactive)

**Q.** What about the GI50 [4] of the same compound?
**A.** 2.25 µM (inactive)

**Q.** What about the GI50 [5] of the same compound?
**A.** 12 µM (inactive)

**Q.** What about the GI50 [6] of the same compound?
**A.** 2.28 µM (inactive)

**Q.** What about the GI50 [7] of the same compound?
**A.** 7.06 µM (inactive)

**Q.** And the GI50 [8]?
**A.** 16.1 µM (inactive)

**Q.** What about the GI50 [9] of the same compound?
**A.** 1.88 µM (inactive)

**Q.** What about the GI50 [10] of the same compound?
**A.** 10.7 µM (inactive)

**Q.** What about the GI50 [11] of the same compound?
**A.** 2.11 µM (inactive)

**Q.** And the GI50 [12]?
**A.** 2 µM (inactive)

**Q.** And the GI50 [13]?
**A.** 16.5 µM (inactive)

**Q.** What about the GI50 [14] of the same compound?
**A.** 11.3 µM (inactive)

**Q.** And the GI50 [15]?
**A.** 2.11 µM (inactive)

**Q.** What about the GI50 [16] of the same compound?
**A.** 19.9 µM (inactive)

**Q.** And the GI50 [17]?
**A.** 4.2 µM

**Q.** And the GI50 [18]?
**A.** 4.08 µM (inactive)

**Q.** And the GI50 [19]?
**A.** 1.69 µM (inactive)

**Q.** And the GI50 [20]?
**A.** 2.84 µM (inactive)

**Q.** What about the GI50 [21] of the same compound?
**A.** 4.62 µM (inactive)

**Q.** And the GI50 [22]?
**A.** 1.74 µM (inactive)

**Q.** What about the GI50 [23] of the same compound?
**A.** 5.96 µM (inactive)

**Q.** What about the GI50 [24] of the same compound?
**A.** 1.78 µM (inactive)

**Q.** What about the GI50 [25] of the same compound?
**A.** 2 µM (inactive)

**Q.** What about the GI50 [26] of the same compound?
**A.** 2.02 µM (inactive)

**Q.** What about the GI50 [27] of the same compound?
**A.** 1.98 µM (inactive)

**Q.** And the GI50 [28]?
**A.** 14.8 µM (inactive)

**Q.** And the GI50 [29]?
**A.** 8.89 µM (inactive)

**Q.** And the GI50 [30]?
**A.** 9.77 µM (inactive)

**Q.** What about the GI50 [31] of the same compound?
**A.** 7.06 µM (inactive)

**Q.** And the GI50 [32]?
**A.** 1.82 µM (inactive)

**Q.** And the GI50 [33]?
**A.** 16.8 µM (inactive)

**Q.** What about the GI50 [34] of the same compound?
**A.** 15.2 µM (inactive)

**Q.** And the GI50 [35]?
**A.** 5.6 µM (inactive)

**Q.** And the GI50 [36]?
**A.** 5.05 µM (inactive)

**Q.** And the GI50 [37]?
**A.** 13.7 µM (inactive)

**Q.** And the GI50 [38]?
**A.** 13.4 µM (inactive)

**Q.** And the GI50 [39]?
**A.** 11.4 µM (inactive)

**Q.** And the GI50 [40]?
**A.** 4.52 µM (inactive)

**Q.** And the GI50 [41]?
**A.** 13.6 µM (inactive)

**Q.** And the GI50 [42]?
**A.** 16.3 µM (inactive)

**Q.** And the GI50 [43]?
**A.** 3.78 µM (inactive)

**Q.** What about the GI50 [44] of the same compound?
**A.** 13.8 µM (inactive)

**Q.** What about the GI50 [45] of the same compound?
**A.** 13.2 µM (inactive)

**Q.** And the GI50 [46]?
**A.** 1.95 µM (inactive)

**Q.** And the GI50 [47]?
**A.** 16.9 µM (inactive)

**Q.** What about the GI50 [48] of the same compound?
**A.** 1.71 µM (inactive)

**Q.** And the GI50 [49]?
**A.** 1.8 µM (inactive)

**Q.** And the GI50 [50]?
**A.** 3.83 µM (inactive)

**Q.** And the GI50 [51]?
**A.** 1.43 µM (inactive)

**Q.** What about the GI50 [52] of the same compound?
**A.** 14.6 µM (inactive)

**Q.** And the GI50 [53]?
**A.** 2.83 µM (inactive)

**Q.** What about the GI50 [54] of the same compound?
**A.** 16.9 µM (inactive)

**Q.** What about the GI50 [55] of the same compound?
**A.** 11.1 µM (inactive)

**Q.** What about the GI50 [56] of the same compound?
**A.** 1.88 µM (inactive)

**Q.** What about the GI50 [57] of the same compound?
**A.** 12 µM (inactive)

**Q.** What about the GI50 [58] of the same compound?
**A.** 11.9 µM (inactive)

**Q.** What does the source list for COC1=C(OC)C(=O)C(Sc2ccc3ccccc3c2)=CC1=O?
**A.** GI50 [1]: 6.03 µM (inactive); GI50 [2]: 14.7 µM (inactive); GI50 [3]: 3.1 µM (inactive); GI50 [4]: 1.68 µM (inactive); GI50 [5]: 14.9 µM (inactive); GI50 [6]: 2.09 µM (inactive); GI50 [7]: 7.64 µM (inactive); GI50 [8]: 16.1 µM (inactive); GI50 [9]: 3.5 µM (inactive); GI50 [10]: 14.7 µM (inactive); GI50 [11]: 4.35 µM (inactive); GI50 [12]: 7.69 µM (inactive); GI50 [13]: 9.86 µM (inactive); GI50 [14]: 12 µM (inactive); GI50 [15]: 14.7 µM (inactive); GI50 [16]: 13.6 µM (inactive); GI50 [17]: 9.68 µM; GI50 [18]: 11.2 µM (inactive); GI50 [19]: 4.89 µM (inactive); GI50 [20]: 11.4 µM (inactive); GI50 [21]: 7.67 µM (inactive); GI50 [22]: 14.7 µM (inactive); GI50 [23]: 11.9 µM (inactive); GI50 [24]: 3.54 µM (inactive); GI50 [25]: 4.25 µM (inactive); GI50 [26]: 1.82 µM (inactive); GI50 [27]: 5.86 µM (inactive); GI50 [28]: 12.8 µM (inactive); GI50 [29]: 19 µM (inactive); GI50 [30]: 4.25 µM (inactive); GI50 [31]: 7.24 µM (inactive); GI50 [32]: 13.5 µM (inactive); GI50 [33]: 0.716 µM (active); GI50 [34]: 7.87 µM (inactive); GI50 [35]: 3.67 µM (inactive); GI50 [36]: 16.3 µM (inactive); GI50 [37]: 10 µM (inactive); GI50 [38]: 5.58 µM (inactive); GI50 [39]: 15.6 µM (inactive); GI50 [40]: 13.2 µM (inactive); GI50 [41]: 9.42 µM (inactive); GI50 [42]: 6.11 µM (inactive); GI50 [43]: 1.29 µM (inactive); GI50 [44]: 9.2 µM (inactive); GI50 [45]: 14.1 µM (inactive); GI50 [46]: 4.63 µM (inactive); GI50 [47]: 12.4 µM (inactive); GI50 [48]: 3.72 µM (inactive); GI50 [49]: 10.4 µM (inactive); GI50 [50]: 2.99 µM (inactive); GI50 [51]: 11.6 µM (inactive); GI50 [52]: 14.5 µM (inactive); GI50 [53]: 0.678 µM (active); GI50 [54]: 12.2 µM (inactive); GI50 [55]: 8.28 µM (inactive); GI50 [56]: 4.58 µM (inactive); GI50 [57]: 6.85 µM (inactive); GI50 [58]: 11.9 µM (inactive)
